Assays:
KK-Ay mice [1] = test: Test Example 3: amount of livestock feed taken by hyperphagia model mice; type: in vivo
Method: The object of this test was to confirm that the casein hydrolysate according to the present invention has a therapeutic effect against the hyperphagia.
The product according to the present invention: The casein hydrolysate according to the present invention, prepared by the method described in EXAMPLE 1, was diluted with the distilled water so that the concentration of the hydrolysate would be 5 mg/ml.
The precipitate fraction: Sample 2 in the Test Example 1 was diluted with the distilled water into 5 mg/ml.
Whole casein hydrolysate: The rennet casein (Fonterra Co-operative Group Limited, protein content 80%) used in EXAMPLE 1 was digested with pepsin in the same way as in EXAMPLE 1, and then, without centrifuging, diluted with the distilled water for injection so that the concentration of the hydrolysate would be 5 mg/ml.
GMP (glycol-macropeptide): A commercially available GMP (MG Nutritionals) was diluted with the distilled water for injection so that the concentration of GMP would be 5 mg/ml. […]
After pre-feeding with said livestock feed for 10 days, test animals were divided into 8 groups each including 8 animals so that they would have the nearly equal body weight and take the nearly equal amount of livestock feed. […] The amount of livestock feed taken by the animal was determined once a week. […]

KK-Ay mice [2] = test: Test Example 4: blood glucose level of hyperphagia model mice; type: in vivo
Text: The object of this test was to confirm that the casein hydrolysate according to the present invention has an effect of decreasing the blood glucose level of the patient with hyperphagia.
The same one as in EXAMPLE 3 was used.
A commercially available livestock feed containing no protein from milk (Nihon Nosan, trade name: MR Stock) was used. As drinking water, tap water (city water) was used.
As animal model for hyperphagia, KK-Ay mice (male, 5 weeks old, CLEA Japan, Inc.) were used.
After pre-feeding with said livestock feed for 10 days, test animals were divided into 8 groups each including 8 animals so that they would have the nearly equal body weight and take the nearly equal amount of livestock feed. The animals of each group could take the livestock feed and water freely. During 5 days of one week, 0.5 ml of the sample was administered to each animal per day using a sonde. The test was performed for 5 weeks. The blood glucose level was determined once a week, using a glucose kit for self checking (Johnson & Johnson).
Relative blood glucose level is an average blood glucose level of each group when the average blood glucose level of the control group is considered 1.

[3] = 5 mg/ml, 0.5 ml per day, 5 weeks after starting of administration

κ-casein: commercially available κ-casein (Sigma)
change of amount of livestock feed taken compared to the control (KK-Ay mice [1]; [3]): wasn't a significant effect
Relative amount of livestock feed ingested 5 weeks later (KK-Ay mice [1]; 0.5 ml of 5 mg/ml sample per day by sonde, 5 days of one week, 5 weeks, control group = 1, * p < 0.05): 0.990
change of blood glucose level compared to the control (KK-Ay mice [2]; [3]): wasn't a significant effect
Relative blood glucose level 5 weeks later (KK-Ay mice [2]; Table 3 (text: relative blood glucose level), 0.5 ml of 5 mg/ml sample per day, 5 days of one week, 5 weeks, control group = 1, * p < 0.05): 0.934
